Measurements taken from patent US20130231393A1, “USE OF SQUARAMIDE IN THE PREVENTION AND/OR TREATMENT OF ROSACEA” (GALDERMA RESEARCH & DEVELOPMENT, priority 2010, published 2013).

Key:
CXCR2 = target: T1, CXCR2 (Homo sapiens, UniProt P25025); test: β-arrestin2 recruitment assay, antagonism of CXCL8 stimulation (PathHunter HEK293 hCXCR2 b-arrestin); type: cell-based; settings: PathHunter HEK293 hCXCR2 b-arrestin cells, CXCL8-stimulated
T1 sequence (P25025 1-360): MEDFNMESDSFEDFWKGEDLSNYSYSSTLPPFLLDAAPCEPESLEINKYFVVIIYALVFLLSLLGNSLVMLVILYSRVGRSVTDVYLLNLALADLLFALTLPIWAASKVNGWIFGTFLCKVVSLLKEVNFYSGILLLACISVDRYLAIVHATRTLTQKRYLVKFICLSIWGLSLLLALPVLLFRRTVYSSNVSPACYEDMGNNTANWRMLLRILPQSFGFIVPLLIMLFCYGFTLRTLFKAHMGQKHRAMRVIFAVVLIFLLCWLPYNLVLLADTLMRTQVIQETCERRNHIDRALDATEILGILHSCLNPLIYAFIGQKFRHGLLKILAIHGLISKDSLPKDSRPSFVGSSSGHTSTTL
Experimental: (§1) Antagonism of CXCL8-Stimulated β-Arrestin2 Recruitment. […] To monitor direct interaction of CXCR2 or CXCR1 with β-arrestin2, we used a β-arrestin2 recruitment assay for CXCR2 or CXCR1 based on enzyme complementation of β-galactosidase (Olson and Eglen, 2007), as established by DiscoveRx Corporation. […] All CXCR2-antagonists are tested in dose-depedant manner (firsty dose 10 μM).
(§2) PathHunter HEK293-hCXCR2 b-arrestin cells or U2OS hCXCR1 b-arrestin cells (both from DiscoveRx Corporation) were plated out overnight at 10,000 cells/well (384-well format) in 50 μl of Opti MEM I+1% bovine serum albumin. Cells were treated with CXR2 antogonist or vehicule (Opti MEM I) and CXCL-8 at the same time for 90 min.; thereafter, 25 μl of PathHunter Detection Reagents (DiscoveRx Corporation) was added. After an incubation of 60 min at room temperature, β-galactosidase-induced luminescence upon β-arrestin-CXCR1/2 interaction was measured in an TopCount Reader (Perkin Elmer). Functional data were evaluated by a nonlinear curve fitting procedure using XLFit4 (IDBS).

CXCR1 = target: T2, CXCR1 (Homo sapiens, UniProt P25024); test: β-arrestin2 recruitment assay, antagonism of CXCL8 stimulation (U2OS hCXCR1 b-arrestin); type: cell-based; settings: U2OS hCXCR1 b-arrestin cells, CXCL8-stimulated
T2 construct: β-galactosidase enzyme-complementation fragment (PathHunter system); host or cells: U2OS (U2OS hCXCR1 b-arrestin)
T2 sequence (P25024 1-350): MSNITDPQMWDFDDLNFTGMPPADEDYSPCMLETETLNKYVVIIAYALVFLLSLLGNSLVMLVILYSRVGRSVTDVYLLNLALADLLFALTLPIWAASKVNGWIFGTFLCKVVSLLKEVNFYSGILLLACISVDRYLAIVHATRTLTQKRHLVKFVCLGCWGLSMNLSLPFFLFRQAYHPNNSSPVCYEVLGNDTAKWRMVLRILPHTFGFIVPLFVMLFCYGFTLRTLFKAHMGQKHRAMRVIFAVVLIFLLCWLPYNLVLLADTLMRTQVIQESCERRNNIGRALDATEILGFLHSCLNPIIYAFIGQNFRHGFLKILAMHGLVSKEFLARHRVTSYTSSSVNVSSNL
Experimental: as §1, §2

hairless SKH1 mice = test: RTX-induced vasodilation in a neurogenic skin inflammation model (laser Doppler perfusion imaging); type: in vivo; settings: capsazepine at 5%, topical; RTX 0.03% on the back of SKH1 mice
Experimental: The animal model of neurogenic skin inflammation was induced by a unique topical application of resiniferatoxin (RTX), 0.03% on the back of hairless SKH1 mice. RTX is an ultrapotent capsaicin analog and RTX exposure evokes neuropeptides release. Most of these neuropeptides have vasodilatory properties and one component of RTX-induced neurogenic inflammation is the dermal vasodilation. In the present RTX-model, the objective assessment of the skin vasodilation was evaluated by laser Doppler perfusion imaging.
Material and Method: • Measurement of RTX-Induced Vasodilation
Adult female hairless SKH1 mice aged 7-9 weeks are obtained from Charles River (France). Anaesthesia with ketamine/xylazine is performed 10 minutes before treatment and body temperature is maintained at 35° C.-37° C. using an automated heating pad. A skin area of 1.8×1.5 cm on the back of the mouse is divided in two regions of interest. One region is treated with the vehicle, the other one with RTX 0.03%. […] The skin blood perfusion is evaluated every 2 minutes on the back of the mouse with a Laser Doppler perfusion imaging PIM3 (Perimed, France). […] Images are analysed and the yield of two parameters, the erythematous surface and the blood perfusion intensity ratio, is calculated as a relative area of vasodilation (mm^2). […] Results are expressed as mean±SEM. […]

Structure (SMILES)	IC50 (CXCR2)	IC50 (CXCR1)	relative area of vasodilation, AUC decreased by (hairless SKH1 mice)
CC[C@@H](Nc1c(Nc2cccc(C(=O)N(C)C)c2O)c(=O)c1=O)c1ccccc1 [3-[3,4-Dioxo-2-((R)-1-phenyl-propylamino)-cyclobut-1-enylamino]-2-hydroxy-N,N-dimethyl-benzamide]	7 nM	148 nM	–
Oc1cc2c(cc1O)CN(C(=S)NCCc1ccc(Cl)cc1)CCC2 [capsazepine]	–	–	13%
